One data set has as its system HCT 116 cells. Nature of the data set: FITC-Annexin V/propidium iodide apoptosis analysis. As to conditions: HCT 116 (p53-wild-type); 72 h; Annexin V/PI flow cytometry. On the technique in general: In flow cytometry, cells or beads pass a laser one at a time.
In data set [1] the test system is p53-wild-type SJSA-1 and U-2 OS cells. As to conditions: 24 h treatment, nutlin-3a 5 μM positive control.
Data set [2] in a line: Stability of compound in solution. As to conditions: while in solution. In kind it is physicochemical.
Data set [3] concerns the target human MDM2 (residues 1–118) (Homo sapiens, UniProt Q00987). Nature of the data set: Fluorescence polarization. The settings on record: fluorescence polarization assay; qualitative statement. (In general: Polarisation of emitted light reports the rotation of a fluorescent probe.)

Data on seven compounds can be found in paper PMC7008132 (European journal of medicinal chemistry, 2019).

As for `CC(C)(C)NC(=O)[C@H](c1c(C(=O)O)[nH]c2cc(Cl)ccc12)N(C=O)Cc1ccc(OCc2ccccc2Br)cc1` [(−)-6m], the Induction of apoptosis entry with HCT 116 cells is “induced apoptosis in p53-wild-type HCT 116 cells, comparable to nutlin-3a”.
With `COc1ccc(C2=N[C@@H](c3ccc(Cl)cc3)[C@@H](c3ccc(Cl)cc3)N2C(=O)N2CCNC(=O)C2)c(OC(C)C)c1` [Nutlin-3a], the “Induction of MDM2 and p21 expression” value in data set [1] is “potent induction of MDM2 and p21”.
Turning to `CC(C)(C)NC(=O)C(c1c(C(=O)O)[nH]c2cc(Cl)ccc12)N(C=O)Cc1ccc(NCc2ccc(Br)cc2)cc1` (stereo not shown) [compound 8, 3-(2-(tert-butylamino)-1-(N-(4-((4-bromobenzyl)amino)benzyl)formamido)-2-oxoethyl)-6-chloro-1H-indole-2-carboxylic acid], the Stability in solution entry in data set [2] is “susceptible to degradation”.
For the compound `Cn1c(C(=O)O)c(C(C(=O)NC(C)(C)C)N(C=O)Cc2ccc(OCc3ccccc3Br)cc2)c2ccc(Cl)cc21` (stereo not shown) [compound 9, 3-(1-(N-(4-((2-bromobenzyl)oxy)benzyl)formamido)-2-(tert-butylamino)-2-oxoethyl)-6-chloro-1-methyl-1H-indole-2-carboxylic acid], in data set [3], the “MDM2 binding activity in words” value is recorded as “total loss of activity”.
On the same count and under the same terms, in the case of `CC(C)(C)NC(=O)C(c1ccc(Cl)cc1)N(C=O)Cc1ccc(OCc2ccc(Cl)c(Cl)c2)cc1` (stereo not shown) [compound 10, N-(tert-butyl)-2-(4-chlorophenyl)-2-(N-(4-((3,4-dichlorobenzyl)oxy)benzyl) formamido)acetamide] it was “no binding”; in that of `CC(C)(C)NC(=O)C(c1cccc(Cl)c1)N(C=O)Cc1ccc(Cl)cc1` (stereo not shown) [compound 11, N-(tert-butyl)-2-(N-(4-chlorobenzyl)formamido)-2-(3-chlorophenyl)acetamide], “no binding”; in that of `O=CN(Cc1ccc(OCc2ccc(F)cc2)cc1)C(C(=O)NC12CC3CC(CC(C3)C1)C2)c1c(C(=O)O)[nH]c2cc(Cl)ccc12` (stereo not shown) [compound 17, 3-(2-((3s,5s,7s)-adamantan-1-ylamino)-1-(N-(4-((4-fluorobenzyl)oxy)benzyl)formamido)-2-oxoethyl)-6-chloro-1H-indole-2-carboxylic acid], “almost in loss of activity”.
